Assay results taken from patent US20140106968A1, “SUBSTITUTED 1,2,4-TRIAZINE-3,5-DIONES AS HERBICIDES” (E I Du Pont De Nemours and Company, priority 2012, published 2014).

How the values were obtained:
Assay type in all cases: in vivo
[1] = test system: barnyardgrass (Echinochloa crus-galli); assay: Test A greenhouse pre-/postemergence herbicide test, barnyardgrass; conditions: 0 to 100 scale, 0 no effect, 100 complete control, approx. 10 days
Excerpt: (§1) Seeds of plant species selected from barnyardgrass (Echinochloa crus-galli), large (Lg) crabgrass (Digitaria sanguinalis), giant foxtail (Setaria faberii), morningglory (Ipomoea spp.), pigweed (redroot pigweed, Amaranthus retroflexus), velvetleaf (Abutilon theophrasti), winter wheat (Triticum aestivum), and corn (Zea mays) were planted into a blend of loam soil and sand and treated preemergence with a directed soil spray using test chemicals formulated in a non-phytotoxic solvent mixture which included a surfactant. At the same time these species were also treated with postemergence applications of test compounds formulated in the same manner. Plants ranged in height from 2 to 10 cm and were in the one- to two-leaf stage for the postemergence treatment. Treated plants and untreated controls were maintained in a greenhouse for approximately 10 days, after which time all treated plants were visually compared to untreated controls and visually evaluated for injury. Plant response ratings, summarized in Table A, are based on a 0 to 100 scale where 0 is no effect and 100 is complete control. A dash (-) response means no test result.

corn (Zea mays) = assay: Test A greenhouse pre-/postemergence herbicide test, corn; conditions: 0 to 100 scale, 0 no effect, 100 complete control, approx. 10 days
Excerpt: as §1

[2] = test system: large (Lg) crabgrass (Digitaria sanguinalis); assay: Test A greenhouse pre-/postemergence herbicide test, large crabgrass; conditions: 0 to 100 scale, 0 no effect, 100 complete control, approx. 10 days
Excerpt: as §1

[3] = test system: giant foxtail (Setaria faberii); assay: Test A greenhouse pre-/postemergence herbicide test, giant foxtail; conditions: 0 to 100 scale, 0 no effect, 100 complete control, approx. 10 days
Excerpt: as §1

[4] = test system: morningglory (Ipomoea spp.); assay: Test A greenhouse pre-/postemergence herbicide test, morningglory; conditions: 0 to 100 scale, 0 no effect, 100 complete control, approx. 10 days
Excerpt: as §1

[5] = test system: pigweed (redroot pigweed, Amaranthus retroflexus); assay: Test A greenhouse pre-/postemergence herbicide test, pigweed; conditions: 0 to 100 scale, 0 no effect, 100 complete control, approx. 10 days
Excerpt: as §1

[6] = test system: velvetleaf (Abutilon theophrasti); assay: Test A greenhouse pre-/postemergence herbicide test, velvetleaf; conditions: 0 to 100 scale, 0 no effect, 100 complete control, approx. 10 days
Excerpt: as §1

[7] = test system: winter wheat (Triticum aestivum); assay: Test A greenhouse pre-/postemergence herbicide test, winter wheat; conditions: 0 to 100 scale, 0 no effect, 100 complete control, approx. 10 days
Excerpt: as §1

[8] = test system: barnyardgrass (Echinochloa crus-galli); assay: Test B flooded paddy test, barnyardgrass; conditions: scale of 0 to 100, 0 no effect, 100 complete control, 13 to 15 days
Method: (§2) Plant species in the flooded paddy test selected from rice (Oryza sativa), small-flower umbrella sedge (Cyperus difformis), duck salad (Heteranthera limosa), and barnyardgrass (Echinochloa crus-galli) were grown to the 2-leaf stage for testing. At time of treatment, test pots were flooded to 3 cm above the soil surface, treated by application of test compounds directly to the paddy water, and then maintained at that water depth for the duration of the test. Treated plants and controls were maintained in a greenhouse for 13 to 15 days, after which time all species were visually compared to controls and visually evaluated. Plant response ratings, summarized in Table B, are based on a scale of 0 to 100 where 0 is no effect and 100 is complete control. A dash (-) response means no test result.

[9] = test system: duck salad (Heteranthera limosa); assay: Test B flooded paddy test, duck salad; conditions: scale of 0 to 100, 0 no effect, 100 complete control, 13 to 15 days
Method: as §2

rice (Oryza sativa) = assay: Test B flooded paddy test, rice; conditions: scale of 0 to 100, 0 no effect, 100 complete control, 13 to 15 days
Method: as §2

[10] = test system: small-flower umbrella sedge (Cyperus difformis); assay: Test B flooded paddy test, small-flower umbrella sedge; conditions: scale of 0 to 100, 0 no effect, 100 complete control, 13 to 15 days
Method: as §2

For `Cn1nc(C(=O)C2=C(O)CCCC2=O)c(=O)n(CCSCC2CC2)c1=O` [Compound 4, 4-[2-[(cyclopropylmethyl)thio]ethyl]-6-[(2-hydroxy-6-oxo-1-cyclohexen-1-yl)carbonyl]-2-methyl-1,2,4-triazine-3,5(2H,4H)-dione], the “Plant response rating, Barnyardgrass” value ([1]; 31 g ai/ha Postemergence) was 0, the “Plant response rating, Barnyardgrass” value ([1]; 31 g ai/ha Preemergence) was 0 and the “Plant response rating, Barnyardgrass” value ([1]; 125 g ai/ha Postemergence) was 10. The “Plant response rating, Barnyardgrass” value ([1]; 125 g ai/ha Preemergence) was 0, the “Plant response rating, Corn” value (corn (Zea mays); 31 g ai/ha Postemergence) was 0 and the “Plant response rating, Corn” value (corn (Zea mays); 31 g ai/ha Preemergence) was 0. For the same molecule, the “Plant response rating, Corn” value (corn (Zea mays); 125 g ai/ha Postemergence) was 0, the “Plant response rating, Corn” value (corn (Zea mays); 125 g ai/ha Preemergence) was 0 and the “Plant response rating, Crabgrass, Large” value ([2]; 31 g ai/ha Postemergence) was 0. For the same molecule, the “Plant response rating, Crabgrass, Large” value ([2]; 31 g ai/ha Preemergence) was 0, the “Plant response rating, Crabgrass, Large” value ([2]; 125 g ai/ha Postemergence) was 10 and the “Plant response rating, Crabgrass, Large” value ([2]; 125 g ai/ha Preemergence) was 0. The “Plant response rating, Foxtail, Giant” value ([3]; 31 g ai/ha Postemergence) was 0, the “Plant response rating, Foxtail, Giant” value ([3]; 31 g ai/ha Preemergence) was 0 and the “Plant response rating, Foxtail, Giant” value ([3]; 125 g ai/ha Postemergence) was 0. The “Plant response rating, Foxtail, Giant” value ([3]; 125 g ai/ha Preemergence) was 0, the “Plant response rating, Morningglory” value ([4]; 31 g ai/ha Postemergence) was 10 and the “Plant response rating, Morningglory” value ([4]; 31 g ai/ha Preemergence) was 0. For the same molecule, the “Plant response rating, Morningglory” value ([4]; 125 g ai/ha Postemergence) was 100, the “Plant response rating, Morningglory” value ([4]; 125 g ai/ha Preemergence) was 0 and the “Plant response rating, Pigweed” value ([5]; 31 g ai/ha Postemergence) was 10. The “Plant response rating, Pigweed” value ([5]; 31 g ai/ha Preemergence) was 0, the “Plant response rating, Pigweed” value ([5]; 125 g ai/ha Postemergence) was 50 and the “Plant response rating, Pigweed” value ([5]; 125 g ai/ha Preemergence) was 0. The “Plant response rating, Velvetleaf” value ([6]; 31 g ai/ha Postemergence) was 70, the “Plant response rating, Velvetleaf” value ([6]; 31 g ai/ha Preemergence) was 0 and the “Plant response rating, Velvetleaf” value ([6]; 125 g ai/ha Postemergence) was 90. For the same molecule, the “Plant response rating, Velvetleaf” value ([6]; 125 g ai/ha Preemergence) was 0, the “Plant response rating, Wheat” value ([7]; 31 g ai/ha Postemergence) was 0 and the “Plant response rating, Wheat” value ([7]; 31 g ai/ha Preemergence) was 0. The “Plant response rating, Wheat” value ([7]; 125 g ai/ha Postemergence) was 10, the “Plant response rating, Wheat” value ([7]; 125 g ai/ha Preemergence) was 0 and the “Plant response rating, Barnyardgrass” value ([8]; 31 g ai/ha Flood) was 0. For the same molecule, the “Plant response rating, Barnyardgrass” value ([8]; 62 g ai/ha Flood) was 0, the “Plant response rating, Barnyardgrass” value ([8]; 125 g ai/ha Flood) was 0 and the “Plant response rating, Barnyardgrass” value ([8]; 250 g ai/ha Flood) was 15. The “Plant response rating, Ducksalad” value ([9]; 31 g ai/ha Flood) was 0, the “Plant response rating, Ducksalad” value ([9]; 62 g ai/ha Flood) was 0 and the “Plant response rating, Ducksalad” value ([9]; 125 g ai/ha Flood) was 50. The “Plant response rating, Ducksalad” value ([9]; 250 g ai/ha Flood) was 65, the “Plant response rating, Rice” value (rice (Oryza sativa); 31 g ai/ha Flood) was 0 and the “Plant response rating, Rice” value (rice (Oryza sativa); 62 g ai/ha Flood) was 0. The “Plant response rating, Rice” value (rice (Oryza sativa); 125 g ai/ha Flood) was 15, the “Plant response rating, Rice” value (rice (Oryza sativa); 250 g ai/ha Flood) was 60 and the “Plant response rating, Sedge, Umbrella” value ([10]; 31 g ai/ha Flood) was 0. For the same molecule, the “Plant response rating, Sedge, Umbrella” value ([10]; 62 g ai/ha Flood) was 0, the “Plant response rating, Sedge, Umbrella” value ([10]; 125 g ai/ha Flood) was 50 and the “Plant response rating, Sedge, Umbrella” value ([10]; 250 g ai/ha Flood) was 65.

In the case of `Cn1nc(C(=O)C2=C(O)CCCC2=O)c(=O)n(CCS(=O)(=O)CC2CC2)c1=O` [Compound 3, 4-[2-[(cyclopropylmethyl)sulfonyl]ethyl]-6-[(2-hydroxy-6-oxo-1-cyclohexen-1-yl)carbonyl]-2-methyl-1,2,4-triazine-3,5(2H,4H)-dione], the “Plant response rating, Barnyardgrass” value ([1]; 31 g ai/ha Postemergence) is reported as 20, the “Plant response rating, Barnyardgrass” value ([1]; 31 g ai/ha Preemergence) is reported as 0 and the “Plant response rating, Barnyardgrass” value ([1]; 125 g ai/ha Postemergence) is reported as 90. The “Plant response rating, Barnyardgrass” value ([1]; 125 g ai/ha Preemergence) was 40, the “Plant response rating, Corn” value (corn (Zea mays); 31 g ai/ha Postemergence) was 0 and the “Plant response rating, Corn” value (corn (Zea mays); 31 g ai/ha Preemergence) was 0. The “Plant response rating, Corn” value (corn (Zea mays); 125 g ai/ha Postemergence) was 0, the “Plant response rating, Corn” value (corn (Zea mays); 125 g ai/ha Preemergence) was 0 and the “Plant response rating, Crabgrass, Large” value ([2]; 31 g ai/ha Postemergence) was 30. The “Plant response rating, Crabgrass, Large” value ([2]; 31 g ai/ha Preemergence) was 10, the “Plant response rating, Crabgrass, Large” value ([2]; 125 g ai/ha Postemergence) was 90 and the “Plant response rating, Crabgrass, Large” value ([2]; 125 g ai/ha Preemergence) was 40. The “Plant response rating, Foxtail, Giant” value ([3]; 31 g ai/ha Postemergence) was 0, the “Plant response rating, Foxtail, Giant” value ([3]; 31 g ai/ha Preemergence) was 0 and the “Plant response rating, Foxtail, Giant” value ([3]; 125 g ai/ha Postemergence) was 40. The “Plant response rating, Foxtail, Giant” value ([3]; 125 g ai/ha Preemergence) was 0, the “Plant response rating, Morningglory” value ([4]; 31 g ai/ha Postemergence) was 60 and the “Plant response rating, Morningglory” value ([4]; 125 g ai/ha Postemergence) was 60. For the same molecule, the “Plant response rating, Morningglory” value ([4]; 125 g ai/ha Preemergence) was 10, the “Plant response rating, Pigweed” value ([5]; 31 g ai/ha Postemergence) was 40 and the “Plant response rating, Pigweed” value ([5]; 31 g ai/ha Preemergence) was 20. For the same molecule, the “Plant response rating, Pigweed” value ([5]; 125 g ai/ha Postemergence) was 100, the “Plant response rating, Pigweed” value ([5]; 125 g ai/ha Preemergence) was 100 and the “Plant response rating, Velvetleaf” value ([6]; 31 g ai/ha Postemergence) was 100. For the same molecule, the “Plant response rating, Velvetleaf” value ([6]; 31 g ai/ha Preemergence) was 0, the “Plant response rating, Velvetleaf” value ([6]; 125 g ai/ha Postemergence) was 100 and the “Plant response rating, Velvetleaf” value ([6]; 125 g ai/ha Preemergence) was 30. The “Plant response rating, Wheat” value ([7]; 31 g ai/ha Postemergence) was 0, the “Plant response rating, Wheat” value ([7]; 31 g ai/ha Preemergence) was 0 and the “Plant response rating, Wheat” value ([7]; 125 g ai/ha Postemergence) was 30. For the same molecule, the “Plant response rating, Wheat” value ([7]; 125 g ai/ha Preemergence) was 10, the “Plant response rating, Barnyardgrass” value ([8]; 31 g ai/ha Flood) was 0 and the “Plant response rating, Barnyardgrass” value ([8]; 62 g ai/ha Flood) was 0. For the same molecule, the “Plant response rating, Barnyardgrass” value ([8]; 125 g ai/ha Flood) was 0, the “Plant response rating, Barnyardgrass” value ([8]; 250 g ai/ha Flood) was 20 and the “Plant response rating, Ducksalad” value ([9]; 31 g ai/ha Flood) was 0. The “Plant response rating, Ducksalad” value ([9]; 62 g ai/ha Flood) was 0, the “Plant response rating, Ducksalad” value ([9]; 125 g ai/ha Flood) was 0 and the “Plant response rating, Ducksalad” value ([9]; 250 g ai/ha Flood) was 85. For the same molecule, the “Plant response rating, Rice” value (rice (Oryza sativa); 31 g ai/ha Flood) was 0, the “Plant response rating, Rice” value (rice (Oryza sativa); 62 g ai/ha Flood) was 0 and the “Plant response rating, Rice” value (rice (Oryza sativa); 125 g ai/ha Flood) was 0. The “Plant response rating, Rice” value (rice (Oryza sativa); 250 g ai/ha Flood) was 30, the “Plant response rating, Sedge, Umbrella” value ([10]; 31 g ai/ha Flood) was 0 and the “Plant response rating, Sedge, Umbrella” value ([10]; 62 g ai/ha Flood) was 0. For the same molecule, the “Plant response rating, Sedge, Umbrella” value ([10]; 125 g ai/ha Flood) was 50 and the “Plant response rating, Sedge, Umbrella” value ([10]; 250 g ai/ha Flood) was 75.
